Data set [1] can be described thus: Metabolic stability assay, human liver microsome and homogenate incubations. It counts as in vitro ADME. Particulars: human liver homogenate or microsomes, LC/PDA/TOF-MS. The procedure: The in vitro metabolic stability of the compounds of the invention was determined for exemplified compounds using human liver microsome and homogenate incubations. The incubation time points used with or without appropriate cofactors were 0 min and 60 min. Samples were collected at both time points and substrates were detected using LC/PDA/TOF-MS. In vitro metabolic stability (% remaining after 60 min in human liver homogenate or microsomes) of the compounds were calculated and the results are summarized in Table 3.

Data set [2] addresses T1, recombinant human 17β-HSD1 (Homo sapiens, UniProt P14061).
T1 construct: made in house; host or cells: Sd9 (Sf9) insect cells, baculovirus (Bac to Bac Expression System); microsomal fraction
T1 sequence (P14061 1-328): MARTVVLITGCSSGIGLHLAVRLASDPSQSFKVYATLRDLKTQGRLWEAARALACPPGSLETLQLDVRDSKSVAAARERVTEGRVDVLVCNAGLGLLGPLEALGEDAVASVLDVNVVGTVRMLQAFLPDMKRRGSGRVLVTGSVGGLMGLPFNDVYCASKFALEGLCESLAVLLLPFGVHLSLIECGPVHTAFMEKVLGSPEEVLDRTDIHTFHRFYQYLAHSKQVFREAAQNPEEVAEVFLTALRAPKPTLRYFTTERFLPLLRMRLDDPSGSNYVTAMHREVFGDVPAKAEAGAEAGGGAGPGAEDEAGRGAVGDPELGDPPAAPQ
Briefly: Inhibition of recombinant human 17β-HSD1 (conversion of 3H-estrone to estradiol, HPLC). To be noted: inhibitor 1 μM; 30 nM estrone, 1 mM NADPH, 30 min at RT; read-out: 17β-HDS1 Inhibition % at 1 μM. Format: biochemical. On the procedure:
17β-HSD1 production and isolation: Recombinant baculovirus was generated by the “Bac to Bac Expression System” (Invitrogen). Recombinant bacmid was transfected to Sd9 insect cells using “Cellfectin Reagent” (Invitrogen). 60 h later cells were harvested; the microsomal fraction was isolated as described by Puranen, T. J., Poutanen, M. H., Peltoketo, H. E., Vihko, P. T. and Vihko, R. K. (1994) Site-directed mutagenesis of the putative active site of human 17 β-hydroxysteroid dehydrogenase type 1. Biochem. J. 304: 289-293. Aliquots were stored frozen until determination of enzymatic activity.
Assay—Inhibition of recombinant human 17β-HSD1: Recombinant protein (1 μg/ml) was incubated in 20 mM KH2PO4 pH 7.4 with 30 nM estrone (including 800 000 cpm/ml of ^3H-estrone) and 1 mM NADPH for 30 min at RT, in the presence of the potential inhibitor at concentrations 1 μM or 0.1 μM. Inhibitor stock solutions were prepared in DMSO. Final concentration of DMSO was adjusted to 1% in all samples. The enzyme reaction was stopped by addition of 10% trichloroacetic acid (final concentration). Samples were centrifuged in a microtiter plate at 4000 rpm for 10 min. Supernatants were applied to reverse phase HPLC on a Waters Symmetry C18 column, equipped with a Waters Sentry Guard column. Isocratic HPLC runs were performed at RT at a flow rate of 1 ml/min in acetonitrile:water 48:52 as running solvent. Radioactivity was monitored in the eluate by a Packard Flow Scintillation Analyzer. Total radioactivity for estrone and estradiol were determined in each sample and percent conversion of estrone to estradiol was calculated according to the following formula:
(§1) Percent inhibition was calculated flowingly: % inhibition=100−% conversion

For data set [3], the target named is T2, recombinant human 17β-HSD2 (Homo sapiens, UniProt P37059).
T2 construct: made in house; host or cells: Sd9 (Sf9) insect cells, baculovirus (Bac to Bac Expression System); fractionated cell extract
T2 sequence (P37059 1-387): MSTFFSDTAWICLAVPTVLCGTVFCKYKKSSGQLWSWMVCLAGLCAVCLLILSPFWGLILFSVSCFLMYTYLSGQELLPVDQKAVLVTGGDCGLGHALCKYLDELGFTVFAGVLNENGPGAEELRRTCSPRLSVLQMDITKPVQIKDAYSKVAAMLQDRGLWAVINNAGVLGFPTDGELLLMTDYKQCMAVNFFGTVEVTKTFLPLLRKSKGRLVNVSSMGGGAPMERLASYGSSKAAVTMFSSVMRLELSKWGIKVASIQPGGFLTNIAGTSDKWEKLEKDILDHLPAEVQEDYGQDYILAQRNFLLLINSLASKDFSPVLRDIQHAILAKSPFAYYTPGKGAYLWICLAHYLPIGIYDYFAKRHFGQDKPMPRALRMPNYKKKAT
Kind of data set: Inhibition of recombinant human 17β-HSD2 (conversion of 3H-estradiol to estrone, HPLC). It counts as biochemical. Particulars: inhibitor 1 μM; 50 nM estradiol, 1 mM NADH, 30 min at RT. On the procedure:
17β-HSD2 production and isolation: Similarly to 17β-HSD1 the Recombinant baculovirus was generated by the “Bac to Bac Expression System” (Invitrogen). Recombinant bacmid was transfected to Sd9 insect cells using “Cellfectin Reagent” (Invitrogen). 60 h later cells were harvested and supernatant were fractionated by the following protocol: • cells were dissolved into 40 ml of A-buffer (40 mM TRIS, pH8.0, 20% glycerol, 20 μM NAD, 0.4 mM PMSF, 150 mM NaCl, 0.5% dodecyl-β-maltoside+protease inhibitor cocktail) • cells were sonicated • lysate was incubated on ice for 15 min • lysate was centrifuged 5000 rpm 15 min, +4° C. • centrifugation of the supernatant 180 000 g 30 min, +4° C. • pellet was dissolved into 8 ml of A-buffer • not resuspended material was removed by centrifugation 5000 rpm 15 min, +4° C. • the clear supernatant was divided into 100 μl aliquots and were stored frozen until determination of enzymatic activity.
The amount of 17β-HSD2 was analysed by immunoblotting and total protein concentration of each extract batch was determined.
Assay—Inhibition of recombinant human 17β-HSD2: Recombinant protein (4 μg/ml) was incubated in 20 mM KH2PO4 pH 8.5 with 50 nM estradiol (including 800 000 cpm/ml of ^3H-estradiol) and 1 mM NADH for 30 min at RT, in the presence of the potential inhibitor at concentrations 1 μM or 0.1 μM. Inhibitor stock solutions were prepared in DMSO. Final concentration of DMSO was adjusted to 1% in all samples. The enzyme reaction was stopped by addition of 10% trichloroacetic acid (final concentration). Samples were centrifuged in a microtiter plate at 4000 rpm for 10 min. Supernatants were applied to reverse phase HPLC on a Waters Symmetry C18 column, equipped with a Waters Sentry Guard column. Isocratic HPLC runs were performed at RT at a flow rate of 1 ml/min in acetonitrile:water 48:52 as running solvent. Radioactivity was monitored in the eluate by a Packard Flow Scintillation Analyzer. Total radioactivity for estrone and estradiol were determined in each sample and percent conversion of estradiol to estrone was calculated according to the following formula:
as §1

The values below come from patent US20170081357A1, “[…] ACTIVE 17-NITROGEN SUBSTITUTED ESTRATREINTHIAZOLE DERIVATIVES AS INHIBITORS OF 17.BETA-HYDROXYSTEROID DEHYDROGENASE” (FORENDO PHARMA LTD, priority 2013, published 2017).

In general, inhibition refers to how much of the control response was suppressed.

Each structure is given as a SMILES string.

Take `CO/N=C1\C[C@@H](CCC(=O)Nc2ncc(C)s2)C2C3CCc4cc(O)c(C(C)(C)C)cc4C3CC[C@]12C` (stereo partly drawn) [Compound 76, 3-{(13S,15R)-2-tert-Butyl-3-hydroxy-17-[(E)-methoxyimino]-13-methyl-7,8,9,11,12,13,14,15,16,17-decahydro-6H-cyclopenta[a]phenanthren-15-yl}-N-(5-methylthiazol-2-yl)propanamide]: the “In vitro metabolic stability, % remaining after 60 min” value in data set [1] was found to be 100%.

As for `C=CCO/N=C1\C[C@@H](CCC(=O)Nc2ncc(C)s2)C2C3CCc4cc(O)c([N+](=O)[O-])cc4C3CC[C@]12C` (stereo partly drawn) [Compound 108, 3-{(13S,15R)-17-[(E)-Allyloxyimino]-3-hydroxyl-13-methyl-2-nitro-7,8,9,11,12,13,14,15,16,17-decahydro-6H-cyclopenta[a]phenanthren-15-yl}-N-(5-methylthiazol-2-yl)propanamide], the inhibition at 1 µM is 80% in data set [2] and 1% in data set [3]. For `Cc1cnc(NC(=O)CC[C@@H]2c3conc3[C@@]3(C)CCC4c5cc(Br)c(O)c(Br)c5CCC4C23)s1` (stereo partly shown) [Compound 119] the same measures were 79% and 28%. With `COc1cc2c(cc1/C(C)=N/O)C1CC[C@]3(C)/C(=N/O)C[C@@H](CCC(=O)Nc4ncc(C)s4)C3C1CC2` (stereo partly shown) [Compound 72], the inhibition at 1 µM stood at 77% in data set [2] and 3% in data set [3]. Take `Cc1cnc(NC(=O)CC[C@@H]2c3c[nH]nc3[C@@]3(C)CCC4c5ccccc5CCC4C23)s1` (stereo partly drawn) [Compound 52, 3-((6aS,10S)-6a-methyl-4b,5,6,6a,8,10,10a,10b,11,12-decehydro-7,8-diaza-pentaleno[2,1-1]phenanthren-10-yl}-N-(5-methylthiazol-2-yl)propanamide]: the inhibition at 1 µM was determined as 94% in data set [2] and 0% in data set [3]. Take `Cc1cnc(NC(=O)CC[C@@H]2C/C(=N\CC(C)C)[C@@]3(C)CCC4c5ccc(O)cc5CCC4C23)s1` (stereo partly drawn) [Compound 121, 3-{(13S,15R)-3-Hydroxy-17-[(E)-isobutylimino]-13-methyl-7,8,9,11,12,13,14,15,16,17-decahydro-6H-cyclopenta[a]phenanthren-15-yl}-N-(5-methylthiazol-2-yl)propionamide]: the inhibition at 1 µM amounted to 94% in data set [2] and 7% in data set [3]. In the case of `COCC/N=C1\C[C@@H](CCC(=O)Nc2ncc(C)s2)C2C3CCc4cc(O)c(C(C)(C)C)cc4C3CC[C@]12C` (stereo partly drawn) [Compound 123, 3-{(13S,15R)-2-tert-Butyl-3-hydroxy-17-[(E)-2-methoxy-ethylimino]-13-methyl-7,8,9,11,12,13,14,15,16,17-decahydro-6H-cyclopenta[a]phenanthren-15-yl}-N-(5-methylthiazol-2-yl)propionamide], the figures for the inhibition at 1 µM in data set [2] and in data set [3] were 94% and 30%, respectively. Regarding `Cc1cnc(NC(=O)CC[C@@H]2C/C(=N\OCC(=O)O)[C@@]3(C)CCC4c5cc(C(C)(C)C)c(O)cc5CCC4C23)s1` (stereo partly drawn) [Compound 110, [(13S,15R)-2-tert-Butyl-3-hydroxy-13-methyl-15-[2-(5-methylthiazol-2-ylcarbamoyl)-ethyl]-6,7,8,9,11,12,13,14,15,16-decahydro-cyclopenta[a]phenanthren-(17E)-ylideneaminooxy]-acetic acid], the inhibition at 1 µM in data set [2] amounted to 70%; in data set [3], 7%. In the case of `COCC/N=C1\C[C@@H](CCC(=O)Nc2ncc(C)s2)C2C3CCc4cc(O)ccc4C3CC[C@]12C` (stereo partly drawn) [Compound 122, 3-{(13S,15R)-3-Hydroxy-17-[(E)-2-methoxy-ethylimino]-13-methyl-7,8,9,11,12,13,14,15,16,17-decahydro-6H-cyclopenta[a]phenanthren-15-yl}-N-(5-methylthiazol-2-yl)propionamide], the inhibition at 1 µM in data set [2] came to 94%; in data set [3] it was 5%. Turning to `Cc1cnc(NC(=O)CC[C@@H]2C(=C\O)/C(=N\O)[C@@]3(C)CCC4c5ccc(O)cc5CCC4C23)s1` (stereo partly drawn) [Compound 69, 3-{(13S,15S)-3-Hydroxy-17-[(Z)-hydroxyimino]-16-[1-hydroxy-meth-(E)-ylidene]-13-methyl-7,8,9,11,12,13,14,15,16,17-decahydro-6H-cyclopenta[a]phenanthren-15-yl}-N-(5-methylthiazol-2-yl)propanamide], the inhibition at 1 µM in data set [2] was determined as 98%; in data set [3], 2%. As to `CO/N=C1\C[C@@H](CCC(=O)Nc2ncc(C)s2)C2C3CCc4cc(OC)c(I)cc4C3CC[C@]12C` (stereo partly drawn) [Compound 84, 3-{(13S,15R)-2-iodo-3-methoxy-17-[(E)-methoxyimino]-13-methyl-7,8,9,11,12,13,14,15,16,17-decahydro-6H-cyclopenta[a]phenanthren-15-yl}-N-(5-methylthiazol-2-yl)propanamide], the inhibition at 1 µM was determined as 62% in data set [2] and 1% in data set [3].

`Cc1cnc(NC(=O)CC[C@@H]2c3c[nH]nc3[C@@]3(C)CCC4c5ccc(O)c([N+](=O)[O-])c5CCC4C23)s1` (stereo partly drawn) [Compound 56, 3-((6aS,10S)-2-Hydroxy-6a-methyl-4-nitro-4b,5,6,6a,8,10,10a,10b,11,12-decehydro-7,8-diaza-pentaleno[2,1-1]phenanthren-10-yl}-N-(5-methylthiazol-2-yl)propanamide]: the inhibition at 1 µM came out at 97% in data set [2] and 39% in data set [3]. On to `Cc1cnc(NC(=O)CC[C@@H]2C/C(=N\O)[C@@]3(C)CCC4c5ccc6ocnc6c5CCC4C23)s1` (stereo partly drawn) [Compound 114, 3-{(7aS,10R)-8-[(E)-Hydroxyimino]-7a-methyl-6,7,7a,8,9,10,10a,10b,11,12-decahydro-5bH-3-oxa-1-aza-dicyclopenta[a,i]phenathren-10-yl}-N-(5-methylthiazol-2-yl)propanamide], for which the inhibition at 1 µM turned out to be 70% in data set [2] and 5% in data set [3].
